Test results reported in patent publication US7732491B2, “Treatment of breast cancer with a PARP inhibitor alone or in combination with anti-tumor agents” (priority 2007, dated 2010).
Blank lines part the entries; values can stand above or below the compound they belong to.

Columns and labels:
[1] = test system: MDA-MB-468 triple negative breast adenocarcinoma cell line; assay: Cell cycle analysis (PI staining, flow cytometry); type: cell-based, human; design: G1 / S / G2/M: unit not given here
[2] = test system: MDA-MB-468 triple negative breast adenocarcinoma cell line; assay: Vital cells, % control; type: cell-based, human
Method: (§1) Breast cancer cells are obtained from ATCC and cultured in Dulbecco Modified Eagle Medium with 10% fetal bovine serum. Cells are plated at 10^5 cells per P100 cell culture dish or at 10^4 cells per P60 cell culture dish in the presence of different concentrations compounds or DMSO control. Following treatment, the number of attached cells is measured using Coulter counter, and by staining with 1% methylene blue. Methylene blue is dissolved in 50%-50% mixture of Methanol and water. Cells are plated in 24- or 96-well plates and treated as planned, media are aspirated, cells are washed with PBS, fixed in methanol for 5-10 min, methanol is aspirated and plates are allowed to dry completely. Methylene blue solution is added to wells and plates are incubated for 5 min. Staining solution is removed and plates are washed with dH2O until washes are no longer blue. After plates are completely dry, a small amount of 1N HCl is added to each well to extract the methylene blue. The OD readout at 600 nm and a calibration curve are used to determine cell number.
After the addition of drugs and incubation, cells are trypsinized and aliquots of the samples are taken for counting and PI (Propidium Iodide) exclusion assay. One part of the cells is centrifuged and resuspended in 0.5 ml ice-cold PBS containing 5 μg/ml of PI. The other part of the cells is fixed in ice-cold 70% ethanol and stored in a freezer overnight. For cell cycle analysis, cells are stained with propidium iodide (PI) by standard procedures. Cellular DNA content is determined by flow cytometry using BD LSRII FACS, and the percentages of cells in G1, S or G2/M are determined using ModFit software.
as §1, with “min.” for “min,”
PI exclusion, cell cycle, TUNEL assays, and BrdU labeling assays are performed as described above in Example 2.

[3] = Tissue distribution / blood-brain barrier; settings: in vivo
Source text: (§2) The person skilled in the art will recognize that BA may be administered in any pharmaceutically acceptable form. e.g. as a pharmaceutically acceptable salt, solvate, or complex. Additionally, as BA is capable of tautomerizing in solution, the tautomeric form of BA is intended to be embraced by the term BA (or the equivalent 4-iodo-3-nitrobenzamide), along with the salts, solvates or complexes. In some embodiments, BA may be administered in combination with a cyclodextrin, such as hydroxypropylbetacyclodextrin.
While not wishing to be bound by any particular theory, it is believed that BA achieves its anti-neoplastic effect by inhibiting the function of PARP. In some embodiments, BA can be used in the treatment of triple negative metastatic breast tumors. In some embodiments, BA can be used in the treatment of breast tumors in which at least one of ER, PR, and Her2 is negative. In some embodiments, BA can be used in the treatment of breast tumors in which at least two of ER, PR, and Her2 is negative, e.g. ER-negative, PR-negative, and Her-2 positive; or ER-positive, PR-negative, and Her-2 negative; or ER-negative, PR-positive, and Her-2 negative.

[4] = molecular target: T1, PARP (Homo sapiens, UniProt P09874); assay: PARP inhibition in peripheral mononuclear blood cells (PMBCs) from patients; type: in vivo
T1 construct: endogenous in cells; host or cells: peripheral blood mononuclear cells (PBMCs) from patients
T1 sequence (P09874 whole entry): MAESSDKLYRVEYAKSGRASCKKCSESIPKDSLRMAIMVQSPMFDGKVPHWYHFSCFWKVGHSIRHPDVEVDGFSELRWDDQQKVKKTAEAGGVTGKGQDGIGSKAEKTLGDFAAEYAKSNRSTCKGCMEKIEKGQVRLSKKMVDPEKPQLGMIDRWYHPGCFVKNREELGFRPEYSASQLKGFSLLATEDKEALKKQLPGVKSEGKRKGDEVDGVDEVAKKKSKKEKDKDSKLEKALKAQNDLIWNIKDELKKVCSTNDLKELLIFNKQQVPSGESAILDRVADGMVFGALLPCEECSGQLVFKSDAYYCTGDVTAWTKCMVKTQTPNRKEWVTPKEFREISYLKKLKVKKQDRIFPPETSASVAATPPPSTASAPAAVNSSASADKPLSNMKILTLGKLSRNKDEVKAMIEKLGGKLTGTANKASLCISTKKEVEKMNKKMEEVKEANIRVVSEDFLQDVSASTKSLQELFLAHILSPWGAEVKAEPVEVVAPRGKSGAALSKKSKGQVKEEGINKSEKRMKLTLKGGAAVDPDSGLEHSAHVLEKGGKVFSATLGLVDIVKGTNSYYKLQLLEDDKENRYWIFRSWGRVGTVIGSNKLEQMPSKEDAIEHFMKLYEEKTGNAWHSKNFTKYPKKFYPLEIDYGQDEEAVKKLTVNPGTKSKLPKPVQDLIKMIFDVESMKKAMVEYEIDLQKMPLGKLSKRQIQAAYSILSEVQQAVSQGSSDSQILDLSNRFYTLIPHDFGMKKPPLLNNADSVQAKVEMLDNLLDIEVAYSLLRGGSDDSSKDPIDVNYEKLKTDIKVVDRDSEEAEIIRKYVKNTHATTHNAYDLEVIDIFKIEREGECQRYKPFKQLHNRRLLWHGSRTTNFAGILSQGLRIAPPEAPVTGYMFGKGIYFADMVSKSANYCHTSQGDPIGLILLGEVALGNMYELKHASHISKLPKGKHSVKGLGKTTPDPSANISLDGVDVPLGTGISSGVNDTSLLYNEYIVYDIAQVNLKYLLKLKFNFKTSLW
Method: The functional activity of PARP before and after treatment of BA will be determined using a PARP activity assay in Peripheral Blood Mononuclear Cells (PBMCs). PBMCs will be prepared from 5 mL blood samples according to procedures described in detail in the study manual and PARP activity/inhibition will be measured.

[5] = Lipophilicity; type: physicochemical
Source text: as §2

[6] = test system: advanced breast tumors; assay: Phase 1b open-label dose escalation study of BA with chemotherapeutic regimens; type: in vivo, human
[7] = in vivo; cited from earlier work
[8] = prepared as directed (10 mg/ml); room temperature; cited from earlier work
[9] = test system: Bcr-abl; settings: read-out: inhibits Bcr-abl phosphorylation, IC50; cited from earlier work
[10] = test system: panel of 63 other kinases, including native c-Abl; settings: cited from earlier work

SMILES: COc1cc([C@@H]2c3cc4c(cc3[C@H](O)[C@H]3COC(=O)[C@@H]23)OCO4)cc(OC)c1OC [PPP, Picropodophyllin, reference compound]
G1 ([1]; PPP 200 nM + 201 0 uM): 51.42 | G2/M ([1]; PPP 200 nM + 201 0 uM): 15.01 | S ([1]; PPP 200 nM + 201 0 uM): 30.22 | G1 ([1]; PPP 400 nM + 201 0 uM): 37.29 | G2/M ([1]; PPP 400 nM + 201 0 uM): 20.17 | S ([1]; PPP 400 nM + 201 0 uM): 25.32 | Vital Cell % control ([2]; PPP 200 nM + 201 0 uM): 89 % control | Vital Cell % control ([2]; PPP 400 nM + 201 0 uM): 60 % control

SMILES: CCc1c2c(nc3ccc(OC(=O)N4CCC(N5CCCCC5)CC4)cc13)-c1cc3c(c(=O)n1C2)COC(=O)[C@]3(O)CC [Irinotecan, reference compound]
G1 ([1]; Irinotecan 5 uM + BA 0 uM): 38.17 | G2/M ([1]; Irinotecan 5 uM + BA 0 uM): 28.05 | S ([1]; Irinotecan 5 uM + BA 0 uM): 33.77 | vital cells, % control ([2]; Irinotecan 5 uM + BA 0 uM): 48.6 % control

biologically relevant dose that elicits significant and sustained PARP inhibition ([4]; Phase 1b): 2.8 mg/kg | lipophilicity [5]: very lipophilic
SMILES: NC(=O)c1ccc(I)c([N+](=O)[O-])c1 [BA, 4-iodo-3-nitrobenzamide]
tissue distribution [3]: distributes rapidly and widely into tissues, including the brain and cerebrospinal fluid (CSF) | PARP inhibition in PBMCs from patients ([4]; after multiple dosing with BA doses of 2.8 mg/kg or higher, FIG. 3): significant and prolonged PARP inhibition | subjects with evidence of stable disease for 2 cycles of treatment or more ([6]; BA in combination with chemotherapeutic regimens): Approximately 80% | tolerability of combination of BA with each cytotoxic regimen ([6]; with topotecan, gemcitabine, temozolomide, or carboplatin+paclitaxel): well tolerated | effect on cell cycle arrest and antiproliferative effect of gamma irradiation ([1]; 3 gray of gamma irradiation with 100 μM of BA, FIG. 6): potentiates S- and G2/M cell cycle arrest and enhances the antiproliferative effect of gamma irradiation | effect on cell cycle arrest and cytotoxic effects induced by PPP ([1]; BA in combination with PPP): potentiates S- and G2/M cell cycle arrest and enhances cytotoxic effects | effect on cell cycle arrest and cytotoxic effects induced by carboplatin or gemcitabine ([1]; BA in combination with gemcitabine or carboplatin, FIG. 2): potentiates S- and G2/M cell cycle arrest and enhances cytotoxic effects | effect on cell cycle arrest and cytotoxic effects induced by irinotecan ([1]; BA in combination with irinotecan): potentiates S- and G2/M cell cycle arrest and enhances cytotoxic effects | G1 ([1]; Irinotecan 0 uM + BA 50 uM): 65.50 | G2/M ([1]; Irinotecan 0 uM + BA 50 uM): 11.02 | S ([1]; Irinotecan 0 uM + BA 50 uM): 23.48 | G1 ([1]; Irinotecan 0 uM + BA 100 uM): 57.72 | G2/M ([1]; Irinotecan 0 uM + BA 100 uM): 15.34 | S ([1]; Irinotecan 0 uM + BA 100 uM): 26.93 | G1 ([1]; PPP 0 nM + 201 50 uM): 50.20 | G2/M ([1]; PPP 0 nM + 201 50 uM): 15.21 | S ([1]; PPP 0 nM + 201 50 uM): 31.34 | G1 ([1]; PPP 0 nM + 201 100 uM): 40.63 | G2/M ([1]; PPP 0 nM + 201 100 uM): 20.16 | S ([1]; PPP 0 nM + 201 100 uM): 34.52 | vital cells, % control ([2]; Irinotecan 0 uM + BA 50 uM): 91.5 % control | vital cells, % control ([2]; Irinotecan 0 uM + BA 100 uM): 67.5 % control | Vital Cell % control ([2]; PPP 0 nM + 201 50 uM): 82 % control | Vital Cell % control ([2]; PPP 0 nM + 201 100 uM): 61 % control | blood-brain barrier [7]: cross the blood-brain barrier

SMILES: N.N.O=C([O-])C1(C(=O)[O-])CCC1.[Pt+2] [carboplatin]
stability of carboplatin solutions [8]: eight

SMILES: NC(=O)c1cccc(-c2cc(Nc3ccc(OC(F)(F)F)cc3)ncn2)c1 [GNF-2]
IC50 [9]: 267 nM | inhibition of a panel of 63 other kinases, including native c-Abl [10]: does not inhibit
